Several values for one entry are separate records, joined by “and”; a condition that tells them apart may be missing. Identical values can stand only once. Toxic doses and inconclusive results are not listed. How the source made its calls: active means survival T/C of 150% or more; inactive means T/C below 125% in these data.
Tested on: P388 leukemia ip, CD2F1 mice, survival T/C
Assay: NCI In Vivo Anticancer Drug Screen. Data for tumor model P388 Leukemia (intraperitoneal) in CD2F1 (CDF1) mice
Settings: endpoint: median survival time, higher = longer survival
Procedure, shortened: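 Mice carrying the transplanted tumor received test compound or vehicle. Survival was recorded in each group, and the value is the treated-group measurement divided by that of the vehicle-treated control group.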

[1] = dose: 50.0 mg/kg/injection, schedule: Q01DX009 (ip), vehicle: Klucel (hydroxypropylcellulose) (HPC)
[2] = dose: 100.0 mg/kg/injection, schedule: Q01DX009 (ip), vehicle: Klucel (hydroxypropylcellulose) (HPC)
[3] = dose: 200.0 mg/kg/injection, schedule: Q01DX009 (ip), vehicle: Klucel (hydroxypropylcellulose) (HPC)
[4] = dose: 50.0 mg/kg/injection, schedule: Q01DX009 (ip), vehicle: saline with Tween-80
[5] = dose: 100.0 mg/kg/injection, schedule: Q01DX009 (ip), vehicle: saline with Tween-80
[6] = dose: 100.0 mg/kg/injection, schedule: Q04DX003 (ip), vehicle: saline with Tween-80
[7] = dose: 60.0 mg/kg/injection, schedule: Q01DX005 (ip), vehicle: saline with Tween-80
[8] = dose: 120.0 mg/kg/injection, schedule: Q01DX005 (ip), vehicle: saline with Tween-80
[9] = dose: 240.0 mg/kg/injection, schedule: Q01DX005 (ip), vehicle: saline with Tween-80
[10] = dose: 60.0 mg/kg/injection, schedule: Q01DX005 (ip), vehicle: Klucel (hydroxypropylcellulose) (HPC)
[11] = dose: 120.0 mg/kg/injection, schedule: Q01DX005 (ip), vehicle: Klucel (hydroxypropylcellulose) (HPC)

Measured: T/C

O=S(=O)(NCCSSCCNS(=O)(=O)c1ccc(F)cc1)c1ccc(F)cc1
inactive: [1] 95 % of control | [2] 90 % of control | [3] 89 % of control

COC(=O)/N=C1\C(=O)C=CC(O)=C1C(N)=O
inactive: dose: 6.25 mg/kg/injection, schedule: Q01DX005 (ip), vehicle: saline with Tween-80 90 % of control | dose: 12.5 mg/kg/injection, schedule: Q01DX005 (ip), vehicle: saline with Tween-80 94 % of control | dose: 25.0 mg/kg/injection, schedule: Q01DX005 (ip), vehicle: saline with Tween-80 92 % of control

CC1CCC(C)(C(O)c2ccc(C(O)C3(C)CCC(C)C3(C)C)cc2)C1(C)C (stereo not given)
inactive: dose: 50.0 mg/kg/injection, schedule: Q01DX009 (ip), vehicle: saline 86 % of control | dose: 50.0 mg/kg/injection, schedule: Q01DX009 (ip), vehicle: suspension in saline 92 % of control | dose: 100.0 mg/kg/injection, schedule: Q01DX009 (ip), vehicle: suspension in saline 91 % of control | dose: 200.0 mg/kg/injection, schedule: Q01DX009 (ip), vehicle: saline 89 % of control

Cn1cnc2cc(N3CCCCC3)c([N+](=O)[O-])cc2c1=O
inactive: [1] 101 % of control | [2] 107 % of control | [3] 99 % of control

CC(C)C(N)S(=O)(=O)O (stereo not given)
inactive: [4] 115 % of control | [5] 94 % of control | dose: 200.0 mg/kg/injection, schedule: Q01DX009 (ip), vehicle: saline with Tween-80 105 % of control

CCCc1c2c(c(CCC)c3c1-c1cccc4cccc-3c14)-c1ccccc1C2=O
inactive: [6] 105 % of control | dose: 200.0 mg/kg/injection, schedule: Q04DX003 (ip), vehicle: saline with Tween-80 95 % of control

CN(C)C(=O)CC/C=C/C1C=CCCN1Cc1ccccc1 (stereo not given)
inactive: dose: 8.75 mg/kg/injection, schedule: Q01DX005 (ip), vehicle: Klucel (hydroxypropylcellulose) (HPC) 103 % of control | dose: 17.5 mg/kg/injection, schedule: Q01DX005 (ip), vehicle: Klucel (hydroxypropylcellulose) (HPC) 100 % of control | dose: 35.0 mg/kg/injection, schedule: Q01DX005 (ip), vehicle: Klucel (hydroxypropylcellulose) (HPC) 100 % of control

COC1=Cc2nc3ccccc3nc2OC1(C)C
inactive: [7] 110 % of control | [8] 100 % of control | [9] 92 % of control

C/C(=N\NC(N)=S)c1ccc2c(c1)Cc1cc(/C(C)=N/NC(N)=S)ccc1-2
inactive: dose: 25.0 mg/kg/injection, schedule: Q04DX002 (ip), vehicle: saline with Tween-80 99 % of control | dose: 50.0 mg/kg/injection, schedule: Q04DX002 (ip), vehicle: saline with Tween-80 92 % of control | dose: 100.0 mg/kg/injection, schedule: Q04DX002 (ip), vehicle: saline with Tween-80 93 % of control | dose: 200.0 mg/kg/injection, schedule: Q04DX002 (ip), vehicle: saline with Tween-80 95 % of control

C/C=C(\C)c1cc(OC)c(C)c(=O)o1
inactive: dose: 25.0 mg/kg/injection, schedule: Q04DX003 (ip), vehicle: Klucel (hydroxypropylcellulose) (HPC) 118 % of control | dose: 50.0 mg/kg/injection, schedule: Q04DX003 (ip), vehicle: Klucel (hydroxypropylcellulose) (HPC) 116 % of control | dose: 100.0 mg/kg/injection, schedule: Q04DX003 (ip), vehicle: Klucel (hydroxypropylcellulose) (HPC) 114 % of control

COc1ccc2c(c1)[C@@]13CCCC[C@H]1[C@@H](C2)[N+](C)=CC3=NO
inactive: [10] 105 % of control

CC(=O)NC(CCS)C(N)=O (stereo not given)
inactive: dose: 50.0 mg/kg/injection, schedule: Q01DX005 (ip), vehicle: Klucel (hydroxypropylcellulose) (HPC) 87 % of control | dose: 100.0 mg/kg/injection, schedule: Q01DX005 (ip), vehicle: Klucel (hydroxypropylcellulose) (HPC) 99 % of control | dose: 200.0 mg/kg/injection, schedule: Q01DX005 (ip), vehicle: Klucel (hydroxypropylcellulose) (HPC) 97 % of control

CC(O)C1CCCCN1 (stereo not given)
inactive: dose: 50.0 mg/kg/injection, schedule: Q01DX005 (ip), vehicle: saline 101 % of control | dose: 100.0 mg/kg/injection, schedule: Q01DX005 (ip), vehicle: saline 101 % of control | dose: 200.0 mg/kg/injection, schedule: Q01DX005 (ip), vehicle: saline 108 % of control

Cc1cc(O)cc(O)c1C(=O)OC1C[C@@]2(C)C1=C(CO)C[C@@H]1CC(C)(C)C[C@@H]12 (stereo not given in full)
inactive: dose: 1.25 mg/kg/injection, schedule: Q01DX005 (ip), vehicle: Klucel (hydroxypropylcellulose) (HPC) 96 % of control | dose: 2.5 mg/kg/injection, schedule: Q01DX005 (ip), vehicle: Klucel (hydroxypropylcellulose) (HPC) 99 % of control | dose: 5.0 mg/kg/injection, schedule: Q01DX005 (ip), vehicle: Klucel (hydroxypropylcellulose) (HPC) 96 % of control | dose: 10.0 mg/kg/injection, schedule: Q01DX005 (ip), vehicle: Klucel (hydroxypropylcellulose) (HPC) 96 % of control | dose: 20.0 mg/kg/injection, schedule: Q01DX005 (ip), vehicle: Klucel (hydroxypropylcellulose) (HPC) 100 % of control | dose: 40.0 mg/kg/injection, schedule: Q01DX005 (ip), vehicle: Klucel (hydroxypropylcellulose) (HPC) 106 % of control | dose: 80.0 mg/kg/injection, schedule: Q01DX005 (ip), vehicle: Klucel (hydroxypropylcellulose) (HPC) 112 % of control | dose: 160.0 mg/kg/injection, schedule: Q01DX005 (ip), vehicle: Klucel (hydroxypropylcellulose) (HPC) 104 % of control

COc1cc(C2NC(=S)NC2=S)ccc1O (stereo not given)
inactive: dose: 25.0 mg/kg/injection, schedule: Q04DX003 (ip), vehicle: saline with Tween-80 109 % of control | dose: 50.0 mg/kg/injection, schedule: Q04DX003 (ip), vehicle: saline with Tween-80 104 % of control | [6] 109 % of control

COc1ccccc1N/N=c1\c2nc3ccccc3nc1n(-c1ccccc1C)c(=S)n2-c1ccccn1
inactive: [7] 102 % of control | [8] 96 % of control

CCOC(=O)N(C)N=NC
inactive: dose: 3.75 mg/kg/injection, schedule: Q01DX005 (ip), vehicle: saline 100 % of control | dose: 7.5 mg/kg/injection, schedule: Q01DX005 (ip), vehicle: saline 107 % of control and 109 % of control | dose: 15.0 mg/kg/injection, schedule: Q01DX005 (ip), vehicle: saline 105 % of control | dose: 30.0 mg/kg/injection, schedule: Q01DX005 (ip), vehicle: saline 120 % of control

CCC(/C=C/c1ccccc1)=N\Nc1ccc(C)cc1
inactive: [7] 107 % of control | [8] 117 % of control | [9] 114 % of control

O=C1C(N=Nc2ccc(Br)cc2)Sc2nc3ccccc3n21 (stereo not given)
inactive: [10] 89 % of control | [11] 89 % of control

Cc1ccccc1C(=Nc1ccccc1)Oc1ccccc1[N+](=O)[O-]
inactive: dose: 100.0 mg/kg/injection, schedule: Q04DX003 (ip), vehicle: saline 100 % of control | dose: 200.0 mg/kg/injection, schedule: Q04DX003 (ip), vehicle: saline 100 % of control | dose: 400.0 mg/kg/injection, schedule: Q04DX003 (ip), vehicle: saline 100 % of control

CC(C(=O)O)C1(O)CCCCC1 (stereo not given)
inactive: dose: 12.5 mg/kg/injection, schedule: Q01DX009 (ip), vehicle: saline with Tween-80 99 % of control | dose: 25.0 mg/kg/injection, schedule: Q01DX009 (ip), vehicle: saline with Tween-80 105 % of control | [4] 102 % of control | [5] 106 % of control

COc1ccc(-n2c(O)c(N=Nc3nc4ccc([N+](=O)[O-])cc4s3)c(=O)n(-c3ccccc3)c2=S)cc1
inactive: [10] 103 % of control | [11] 100 % of control | dose: 240.0 mg/kg/injection, schedule: Q01DX005 (ip), vehicle: Klucel (hydroxypropylcellulose) (HPC) 91 % of control

— PubChem BioAssay AID330 (DTP/NCI, 2004)
